Format in all cases: in vivo
The test system of data set [1] is Uropathogenic E. coli EC200. Kind of data set: Murine kidney infection model, uropathogenic E. coli EC200. Particulars: Escherichia coli, po, 36 h, BALB/c mice, read-out: EC200 UTI PO, log10 reduction in CFUs in the kidney versus untreated controls. The procedure:
Kidney Infection Models for Uropathogenic E. coli EC200 and K. pneumoniae ESBL Isolate KP453
Compounds were tested in a BALB/c murine kidney infection model challenged with tetracycline-resistant E. coli strain uropathogenic […] via intravenous injection. […] For IV administration test compound was dosed at 3 mg/kg. Thirty-six hours following initiation of treatment, mice were euthanized and bacterial reduction in the kidney was quantified by plating kidney homogenates. Results are reported in Table D as log10 reduction in colony forming units (CFUs) in the kidney versus untreated controls (receiving no test compound).

For the next data set, the system named is S. aureus ATCC 13709. As to the kind of experiment: Neutropenic thigh model. The following applies: neutropenic female CD-1 mice, IV, doses ranging 0.3 to 30 or 0.3 to 20 mg/kg, 24 hours post treatment. The procedure: Neutropenic Thigh Model Female CD-1 mice were pre-treated with cyclophosphamide to render the mice neutropenic. Mice were infected with S. aureus ATCC 13709 via injection of 0.1 ml into the right thigh muscle of each mouse. One and a half hours post infection mice were treated IV with test compounds in doses ranging from 0.3 to 30 mg/kg or 0.3 to 20 mg/kg. Four mice were treated with each drug concentration. Twenty-four hours post treatment, mice were euthanized by CO2 inhalation. The right thighs of the mice were aseptically removed, weighed, homogenized, serially diluted, and plated on TSA medium. The plates were incubated overnight at 37° C. in 5% CO2. Colony forming units per gram of thigh was calculated by enumerating the plated colonies then adjusting for serial dilutions and the weight of the thigh.

Data set [2] has as its system S. aureus Smith (ATCC 13709). As to the kind of experiment: Mouse systemic infection (septicemia) model, S. aureus Smith. The following applies: Staphylococcus aureus, CD-1 female mice; for responders at 3 mg/kg: ATCC13709, iv, IV 3 mg/kg one hour post infection, read-out: SA Smith septicemia survival IV (3 mg/kg); for responders at 3 mg/kg / responders at 30 mg/kg: 48 h, survival at 48 hours; for responders at 30 mg/kg: ATCC13709, po, PO 30 mg/kg one hour post infection, read-out: SA Smith septicemia survival PO (30 mg/kg); for ED50: ATCC13709, dose that prevents 50% of the mice from death, 48 hours. Summed up: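 Female CD-1 mice (18-22 g) infected IP with an inoculum lethal to all within 24–48 h. Compound given 1 h post-infection IV ([…]) or PO ([…]), typically six mice per dose group; survival followed for 48 h and PD50 (mg/kg) derived from 48 h survival.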

A short description of data set [3]: Pharmacokinetic studies in rats. Particulars: male Sprague Dawley rats; for clearance / bioavailability / AUC / Cmax: rat, plasma, fasted; for clearance: read-out: Cl, IV Rat PK; for bioavailability: oral 10 mg/kg vs IV 1 mg/kg, read-out: % F (oral bioavailability), Oral Rat PK; for Cmax: read-out: Cmax, IV Rat PK. As for the experimental part:
Pharmacokinetic Studies in Rats Test compounds were evaluated in fasted (no food for 18 hours prior to dosing) male Sprague Dawley rats (3 animals per group) by administration of 1 mg/kg intravenously into the jugular vein and […] by oral gavage. Ten plasma samples were drawn for each dosing route up to 24 hours into heparin-coated vacutainer tubes. The plasma concentrations of the test compounds were quantified by LC/MS/MS using an internal standards. WinNONLIN was used to determine PK parameters ±standard deviation (AUC, Cmax, CL, Vss and % oral bioavailabilty (% F) and are set forth in Table F.

Setting [4] is: IV, read-out: SA Smith septicemia PD50 IV.
The mark [5] stands for this setting: PO, read-out: SA Smith septicemia PD50 PO.
Setting [6] is: IV 1 mg/kg, read-out: AUC, IV Rat PK.
Where [7] appears, read: oral gavage 10 mg/kg, read-out: AUC, Oral Rat PK.

What is called bioavailability is the share of a dose that reaches the circulation, judged against a reference dose that is usually intravenous. What is called AUC is the area under the concentration-time curve, a measure of exposure. As a reminder, the Cmax is the highest concentration seen after dosing.

Like-named read-outs stand apart in the source and are kept apart here.

Consider `CN(C)[C@@H]1C(O)=C(C(N)=O)C(=O)[C@@]2(O)C(O)=C3C(=O)c4c(O)cc(CN(C)C(C)(C)C)c(F)c4C[C@H]3C[C@@H]12` [Compound S2-4-25], for which the log reduction at 2 mg/kg in data set [1] (PO 2 mg/kg at 12 and 24 hours post infection) turned out to be 2.78. For the same molecule, the log reduction at 3 mg/kg in data set [1] (PO @ 3 mpk) amounted to 3.63. Also, the “log10 REDUCTION in colony forming units versus untreated control group (thigh)” value in the data set on S. aureus ATCC 13709 turned out to be 4.1 log10. In addition, in data set [2], the responders at 3 mg/kg turned out to be 100% and the responders at 30 mg/kg worked out at 100%. Further, the ED50 in data set [2] (setting [4]) was 0.35 mg/kg. For the same molecule, the ED50 in data set [2] (setting [5]) came out at 1.4 mg/kg. The “12 h urine, IV Rat PK” value in data set [3] (IV 1 mg/kg, urine, 12 h) came out at 12 h urine 11 ug/mL. In data set [3] (IV 1 mg/kg), the clearance is 19.4 mL/min/kg and the Cmax turned out to be 214 ng/mL. Moreover, the bioavailability in data set [3] turned out to be 9.1%. In addition, the AUC in data set [3] (setting [6]) was found to be 838 ng·h/mL. In addition, in data set [3] (setting [7]), the AUC was found to be 826 ng·h/mL.
In the case of `CC(C)CNCc1cc(O)c2c(c1F)C[C@H]1C[C@H]3[C@H](N(C)C)C(O)=C(C(N)=O)C(=O)[C@@]3(O)C(O)=C1C2=O` [Compound S2-4-14], the “log10 REDUCTION in colony forming units versus untreated control group (thigh)” value in the data set on S. aureus ATCC 13709 was 3.68 log10. The responders at 3 mg/kg in data set [2] was 100%. The responders at 30 mg/kg in data set [2] came out at 100%. For the same molecule, the ED50 in data set [2] (setting [4]) was found to be 0.84 mg/kg; in data set [2] (setting [5]), 12.2 mg/kg. The clearance in data set [3] (IV 1 mg/kg) was 3.88 mL/min/kg. Besides, the bioavailability in data set [3] was found to be 13.7%. In addition, the AUC in data set [3] (setting [6]) stood at 4430 ng·h/mL; in data set [3] (setting [7]), 6160 ng·h/mL. In addition, the Cmax in data set [3] (IV 1 mg/kg) amounted to 667 ng/mL.

The record behind these values is US9315451B2, “Tetracycline compounds” (priority 2009, dated 2016).
